{
  "source": "patent US20110207807A1",
  "about": "“NEW USE FOR HOMOISOFLAVONE OR A SALT THEREOF” (Catholic University Industry Academy Cooperation Foundation, priority 2008, published 2011)",
  "key": {"[1]": {"system": "5-LOX", "experiment": "5-LOX translocation to nuclear membrane induced by PMA and A23187 in HMC-1 (Western blot)", "type": "cell-based, human", "conditions": "HMC-1, 2 μg/mL, 50 nM PMA + 1 μM A23187, 5 hours (FIG. 7b)", "protocol": "In order to investigate the effect of homoisoflavanone on the migration of 5-LOX from the cytoplasm toward the nuclear membrane induced by phorbol 12-myristate 13-acetate and A23187 in human mast cells, 1×10^6 HMC-1 cells were inoculated on a 100-mm culture dish and cultured in IMDM containing 10% FBS for 48 hours. Then, after treating with homoisoflavanone at 2 μg/mL, the cells were treated with 50 nM phorbol 12-myristate 13-acetate and 1 μM A23187 to induce migration of 5-LOX to the nuclear membrane, and then further cultured for 5 hours.\nThen, in order to measure the migration of 5-LOX to the nuclear membrane, nuclear membrane proteins were isolated first. The cells of each test group were lysed with a buffer containing 10 mM HEPES/KOH, 0.1 mM EDTA, 10% NP-40, 10 mM KCl, 1 mM DTT, 0.5 mM PMSF and a protease inhibitor cocktail on ice for 10 minutes. After centrifugation, the supernatant (cytoplasmic proteins) was separated from the pellets (nuclear membrane proteins). The cytoplasmic proteins were kept at −80° C. and the pellets were lysed with a buffer containing 10 mM HEPES/KOH, 0.1 mM EDTA, 10% NP-40, 300 mM NaCl, 1 mM DTT, 0.5 mM PMSF and a protease inhibitor cocktail by shaking on ice for 30 minutes. Then, after centrifugation, the supernatant (nuclear proteins) was separated. […]"}, "[2]": {"system": "T cells", "experiment": "Mixed lymphocyte reaction (MLR), T cell proliferation (3H-thymidine)", "type": "cell-based, mouse", "conditions": "one-way MLR, BALB/C and C57B/C splenocytes, concentration-dependent (FIG. 9)", "protocol": "Mixed lymphocyte reaction (MLR) was carried out in order to investigate the inhibitory effect of homoisoflavanone against T cell proliferation. When mouse immune cells of different MHC classes are cultured as mixed with each other, the T cells recognize those of different MHC class as antigens and thus proliferate. One-way MLR was performed as follows. Following excision of spleens from BALB/C and C57B/C mice, the cells were individualized and red blood cells were lysed. After irradiation of 25 Gy γ-rays to BALB/C splenocytes to inactivate the BALB/C T cells, the BALB/C and C57B/C splenocytes (5×10^5 and 2×10^5 cells each) were mixed in a U-bottom 96-well plate. After treating with homoisoflavanone, the cells were incubated for 56 hours in an incubator of 5% CO2 and 37° C. Then, after further adding ^3[H]-thymidine (0.5) to each well, the cells were further incubated for 16 hours. Thereafter, the cells of each well were collected on filter paper and then put in a vial. After adding a scintillation solution (2 mL), counts per minute (CPM) was measured using a β-counter."}, "[3]": {"system": "ERK", "experiment": "ERK phosphorylation induced by PMA and A23187 in HMC-1 (Western blot)", "type": "cell-based, human", "conditions": "HMC-1, 2 μg/mL, 50 nM PMA + 1 μM A23187, 30 minutes (FIG. 7c)", "protocol": "(§1) 1×10^6 HMC-1 cells were inoculated on a 100-mm culture dish and cultured in IMDM containing 10% FBS for 48 hours. […] Then, Western blotting was carried out in the same manner as in Example 2-1 except for using rabbit anti-p-cytosolic phospholipase A2 (cPLA2) antibody, rabbit anti-cPLA2 antibody, rabbit anti-ERK antibody and rabbit anti-p-ERK antibody (Cell Signaling) and using anti-rabbit IgG-HRP conjugation antibody (Zymed) as secondary antibody."}, "[4]": {"system": "hairless mouse (SKH-1)", "experiment": "Ear edema induced by phorbol 12-myristate 13-acetate in animal model", "type": "in vivo", "protocol": "In order to confirm the in vitro test result on the human keratinocytes HaCaT cells in an animal model, experiment was performed as follows using hairless mouse (SKH-1). Test groups are as follows: non-treated group—treated not with phorbol 12-myristate 13-acetate but only with acetone (TPA); test group A—treated with 1 μg/10 μL homoisoflavanone or 50 μg/10 μL dexamethasone; control group (TPA)-treated with 100 μM phorbol 12-myristate 13-acetate; test group B—treated with 1 μg/10 μL homoisoflavanone or 50 μg/10 μL dexamethasone as well as 100 μM phorbol 12-myristate 13-acetate.\nOne hour before treating with phorbol 12-myristate 13-acetate, 1 μg/10 μL homoisoflavanone or 50 μg/10 μL dexamethasone was applied on the front and rear parts of the ear, 5 μL each. Then, 6 hour after the application of phorbol 12-myristate 13-acetate, ear thickness and weight were measured.\nIn order to investigate overall change in the skin tissue, hematoxylin-eosin staining was carried out."}, "[5]": {"system": "cPLA2", "experiment": "cPLA2 phosphorylation induced by PMA and A23187 in HMC-1 (Western blot)", "type": "cell-based, human", "conditions": "HMC-1, 2 μg/mL, 50 nM PMA + 1 μM A23187, 4 hours (FIG. 7c)", "protocol": "as §1"}, "[6]": {"system": "TNF-α", "experiment": "UV-induced TNF-α mRNA expression in HaCaT cells (real-time PCR)", "type": "cell-based, human", "conditions": "1 μg/mL, UV 100 J/m^2, compared to control group (FIG. 3)", "protocol": "(§2) 1×10^6 HaCaT cells were inoculated on a 100-mm culture dish and cultured in DMEM containing 10% FBS for 24 hour. Then, the cells were starved by culturing for 24 hours in DMEM containing 1% FBS. Then, after treating with homoisoflavanone at 1 μg/mL for 1 hour, the cells were washed 3 times with PBS and irradiated with UV at 100 J/m^2 to induce increase of cytokines. Immediately after the UV radiation, the cells were washed again with PBS and further cultured for 2 or 5 hours in DMEM containing 1% FBS which had been treated with homoisoflavanone at the same concentration.\n(§3) After extracting RNA from the cells of each test group using TRIzol (Invitrogen, USA), cDNA was prepared by carrying out PCR (PTC-225 Peltier thermal cycler, MJ Research, USA). Then, the mRNA expression of IL-6, IL-8 and TNF-α was measured through real-time PCR (Roter Gene 6000 series, Corbett Research, Australia) using the cDNA as template and using commercially available IL-6, IL-8 and TNF-α primers. The expression level of the pro-inflammatory cytokines was compared relative to the non-treated group."}, "[7]": {"system": "IL-6", "experiment": "UV-induced IL-6 mRNA expression in HaCaT cells (real-time PCR)", "type": "cell-based, human", "conditions": "1 μg/mL, UV 100 J/m^2, compared to control group (FIG. 3)", "protocol": "as §2, §3"}, "[8]": {"conditions": "topical 1 μg/10 μL homoisoflavanone or 50 μg/10 μL dexamethasone 1 h before 100 μM TPA, 6 hour after TPA, vs TPA control (FIG. 4a, 4b)"}},
  "data": [
    {"smiles": "COc1ccc(CC2COc3cc(O)cc(O)c3C2=O)cc1O", "note": "(stereo not drawn) [homoisoflavanone]", "values": [
      {"measurement": "migration of 5-LOX toward the nuclear membrane", "setting": "[1]", "result": "inhibited"},
      {"measurement": "concentrations at which proliferation of T cells was effectively inhibited", "setting": "[2]", "result": "≥ 0.25", "unit": "µg/mL"},
      {"measurement": "ERK phosphorylation", "setting": "[3]", "result": "no effect"},
      {"measurement": "hyperplasia in the epidermis (hematoxylin-eosin staining)", "setting": "[4]; 1 μg/10 μL homoisoflavanone or 50 μg/10 μL dexamethasone plus TPA (FIG. 4c)", "result": "significantly reduced"},
      {"measurement": "ear thickness", "setting": "[4]; [8]", "result": "decrease"},
      {"measurement": "ear weight", "setting": "[4]; [8]", "result": "decrease"},
      {"measurement": "cPLA2 phosphorylation", "setting": "[5]", "result": "inhibited"},
      {"measurement": "expression of TNF-α (mRNA) induced by UV", "setting": "[6]", "result": "decreased expression"},
      {"measurement": "expression of IL-6 (mRNA) induced by UV", "setting": "[7]", "result": "decreased expression"}
    ]}
  ]
}
